Several values for one entry are separate records, joined by “and”; a condition that tells them apart may be missing. Equal entries are not always repeated. Toxic doses and inconclusive results are not listed.

The experiment relates to BDF1 mice, P388 leukemia ip, median survival T/C. The experiment in a line: NCI In Vivo Anticancer Drug Screen. Data for tumor model P388 Leukemia (intraperitoneal) in B6D2F1 (BDF1) mice. The note with it: endpoint: median survival time, higher = longer survival. In outline: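 Antitumour effect was judged in vivo: survival in drug-treated mice, normalised to that of vehicle-dosed controls, gives the reported T/C.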

Where [1] appears, read: dose: 25.0 mg/kg/injection, schedule: Q01DX009 (ip), vehicle: saline with Tween-80.
Setting [2] is: dose: 50.0 mg/kg/injection, schedule: Q01DX009 (ip), vehicle: saline with Tween-80.
[3] abbreviates: dose: 100.0 mg/kg/injection, schedule: Q01DX009 (ip), vehicle: saline with Tween-80.
Where [4] appears, read: dose: 100.0 mg/kg/injection, schedule: Q04DX003 (ip), vehicle: Klucel (hydroxypropylcellulose) (HPC).
[5] abbreviates: dose: 200.0 mg/kg/injection, schedule: Q04DX003 (ip), vehicle: Klucel (hydroxypropylcellulose) (HPC).
The mark [6] stands for this setting: dose: 400.0 mg/kg/injection, schedule: Q04DX003 (ip), vehicle: Klucel (hydroxypropylcellulose) (HPC).
The mark [7] stands for this setting: dose: 6.25 mg/kg/injection, schedule: Q01DX009 (ip), vehicle: water.
[8] abbreviates: dose: 25.0 mg/kg/injection, schedule: Q01DX009 (ip), vehicle: saline.
Where [9] appears, read: dose: 50.0 mg/kg/injection, schedule: Q01DX009 (ip), vehicle: saline.
The mark [10] stands for this setting: dose: 100.0 mg/kg/injection, schedule: Q01DX009 (ip), vehicle: saline.

Consider `c1ccc(CN2CCCCC2)nc1`, for which the T/C is, setting by setting: (dose: 5.0 mg/kg/injection, schedule: Q01DX009 (ip), vehicle: Klucel (hydroxypropylcellulose) (HPC)) 105 % of control; (dose: 5.0 mg/kg/injection, schedule: Q04DX003 (ip), vehicle: Klucel (hydroxypropylcellulose) (HPC)) 104 % of control; (dose: 10.0 mg/kg/injection, schedule: Q01DX009 (ip), vehicle: Klucel (hydroxypropylcellulose) (HPC)) 100 % of control; (dose: 10.0 mg/kg/injection, schedule: Q04DX003 (ip), vehicle: Klucel (hydroxypropylcellulose) (HPC)) 100 % of control; (dose: 20.0 mg/kg/injection, schedule: Q01DX009 (ip), vehicle: Klucel (hydroxypropylcellulose) (HPC)) 105 % of control; (dose: 20.0 mg/kg/injection, schedule: Q04DX003 (ip), vehicle: Klucel (hydroxypropylcellulose) (HPC)) 100 % of control.

Turning to `Nc1nc2nc(N=Nc3ccccc3)[nH]c2c(=O)[nH]1`, the T/C (dose: 50.0 mg/kg/injection, schedule: Q01DX005 (ip), vehicle: saline with Tween-80) was 100 % of control; the T/C (dose: 100.0 mg/kg/injection, schedule: Q01DX005 (ip), vehicle: saline with Tween-80) is 91 % of control; the T/C (dose: 200.0 mg/kg/injection, schedule: Q01DX005 (ip), vehicle: saline with Tween-80) was 110 % of control.

As to `Cc1ccccc1P(=O)(c1ccccc1)c1ccccc1C`, the T/C was 90 % of control under setting [1], 96 % of control under setting [2] and 87 % of control under setting [3].

On to `[Au].c1ccc(-c2nn[nH]n2)cc1.c1ccc(P(c2ccccc2)c2ccccc2)cc1`, for which the T/C is 104 % of control (dose: 6.25 mg/kg/injection, schedule: Q01DX009 (ip), vehicle: saline with Tween-80); 106 % of control (dose: 12.5 mg/kg/injection, schedule: Q01DX009 (ip), vehicle: saline with Tween-80); 123 % of control under setting [1].

For the compound `CCOc1ccc(Br)cc1/C=C1\N=C(c2ccccc2)OC1=O`, the T/C was 95 % of control under setting [4], 100 % of control under setting [5] and 95 % of control under setting [6].

Consider `COc1cccc2c1C(=O)c1c(O)c3c(c(O)c1C2=O)C[C@@](O)(C(=O)O)C[C@@H]3OC1CC(N)C(O)C(C)O1` (some centres not stated), for which the T/C reads like this: (dose: 1.56 mg/kg/injection, schedule: Q01DX009 (ip), vehicle: water) 100 % of control; (dose: 3.12 mg/kg/injection, schedule: Q01DX009 (ip), vehicle: water) 107 % of control and 109 % of control; under setting [7], 93 % of control.

With `COc1ccc(C(=O)C(Br)C(Br)C(=O)O)cc1` (configuration not stated), the T/C is 100 % of control (dose: 12.5 mg/kg/injection, schedule: Q01DX009 (ip), vehicle: saline); 95 % of control and 104 % of control under setting [8]; 100 % of control (dose: 25.0 mg/kg/injection, schedule: Q04DX003 (ip), vehicle: saline); 95 % of control and 112 % of control under setting [9]; 109 % of control (dose: 50.0 mg/kg/injection, schedule: Q04DX003 (ip), vehicle: saline); 105 % of control under setting [10]. The T/C (dose: 100.0 mg/kg/injection, schedule: Q04DX003 (ip), vehicle: saline) was 86 % of control.

For `CS(=O)(=O)OCCNC[C@@H](O)[C@@H](O)CNCCOS(C)(=O)=O`, the T/C (dose: 0.17 mg/kg/injection, schedule: Q04DX003 (ip), vehicle: saline) was 121 % of control; the T/C (dose: 0.26 mg/kg/injection, schedule: Q04DX003 (ip), vehicle: saline) is 117 % of control; the T/C (dose: 0.4 mg/kg/injection, schedule: Q04DX003 (ip), vehicle: saline) is 154 % of control; the T/C (dose: 0.6 mg/kg/injection, schedule: Q04DX003 (ip), vehicle: saline) is 170 % of control; the T/C (dose: 0.92 mg/kg/injection, schedule: Q04DX003 (ip), vehicle: saline) was 175 % of control; the T/C (dose: 1.3 mg/kg/injection, schedule: Q04DX003 (ip), vehicle: saline) was 175 % of control. In addition, the T/C runs as follows: (dose: 2.1 mg/kg/injection, schedule: Q04DX003 (ip), vehicle: saline) 186 % of control; (dose: 3.1 mg/kg/injection, schedule: Q04DX003 (ip), vehicle: saline) 168 % of control; (dose: 11.0 mg/kg/injection, schedule: Q04DX003 (ip), vehicle: saline) 200 % of control; (dose: 16.0 mg/kg/injection, schedule: Q04DX003 (ip), vehicle: saline) 243 % of control; (dose: 33.0 mg/kg/injection, schedule: Q04DX003 (ip), vehicle: saline) 300 % of control and 118 % of control.

Take `CN(C)CC(C(=O)Cc1ccccc1)c1ccccc1` (configuration not stated): the T/C under setting [2] was 102 % of control and the T/C under setting [3] was 111 % of control.

On to `CCOC(=O)C1=C(C)NC(C)=C(C(=O)OCC)C1c1ccc([N+](=O)[O-])s1`, for which the T/C is 106 % of control under setting [2] and 99 % of control under setting [3].

Consider `CCSc1nc(=S)cc(C)[nH]1`, for which the T/C is, setting by setting: (dose: 100.0 mg/kg/injection, schedule: Q01DX009 (ip), vehicle: Klucel (hydroxypropylcellulose) (HPC)) 105 % of control; under setting [4], 95 % of control; (dose: 200.0 mg/kg/injection, schedule: Q01DX009 (ip), vehicle: Klucel (hydroxypropylcellulose) (HPC)) 100 % of control; under setting [5], 95 % of control; (dose: 400.0 mg/kg/injection, schedule: Q01DX009 (ip), vehicle: Klucel (hydroxypropylcellulose) (HPC)) 105 % of control; under setting [6], 104 % of control.

Regarding `S=c1[nH]ccn2cnnc12`, the T/C reads like this: (dose: 100.0 mg/kg/injection, schedule: Q01DX001 (ip), vehicle: saline with Tween-80) 88 % of control; (dose: 200.0 mg/kg/injection, schedule: Q01DX001 (ip), vehicle: saline with Tween-80) 106 % of control; (dose: 400.0 mg/kg/injection, schedule: Q01DX001 (ip), vehicle: saline with Tween-80) 100 % of control.

As to `NCc1cc(=O)[nH]o1`, the T/C is 98 % of control (dose: 2.5 mg/kg/injection, schedule: Q01DX005 (ip), vehicle: saline) and 106 % of control (dose: 5.0 mg/kg/injection, schedule: Q01DX005 (ip), vehicle: saline).

For `OCCNCCN=Cc1ccccc1O`, the T/C (dose: 50.0 mg/kg/injection, schedule: Q01DX001 (ip), vehicle: saline sonified) was 87 % of control; the T/C (dose: 100.0 mg/kg/injection, schedule: Q01DX001 (ip), vehicle: saline sonified) was 91 % of control; the T/C (dose: 200.0 mg/kg/injection, schedule: Q01DX001 (ip), vehicle: saline sonified) is 100 % of control.

Consider `COc1ccc(OC)c2c1C(=O)CC2C` (configuration not stated), for which the T/C was 105 % of control under setting [8], 91 % of control under setting [9] and 98 % of control under setting [10].

On to `CCCCCCCCCCCC(=O)NC1CC(O[C@H]2C[C@](O)(C(=O)CO)Cc3c(O)c4c(c(O)c32)C(=O)c2c(OC)cccc2C4=O)OC(C)C1O` (some centres not stated), for which the T/C is 113 % of control (dose: 0.78 mg/kg/injection, schedule: Q01DX009 (ip), vehicle: water); 159 % of control (dose: 3.13 mg/kg/injection, schedule: Q01DX009 (ip), vehicle: water); 168 % of control under setting [7]; 240 % of control (dose: 12.5 mg/kg/injection, schedule: Q01DX009 (ip), vehicle: water); 159 % of control (dose: 25.0 mg/kg/injection, schedule: Q01DX009 (ip), vehicle: water).

Regarding `Nc1nc(N)c2nc(CNc3ccc(C(=O)NC(CCC(=O)O)C(=O)O)cc3)cnc2n1` (configuration not stated), the T/C was 90 % of control and 104 % of control (dose: 0.03 mg/kg/injection, schedule: Q01DX010 (ip), vehicle: other); 109 % of control and 115 % of control (dose: 0.05 mg/kg/injection, schedule: Q01DX010 (ip), vehicle: other); 118 % of control (dose: 0.1 mg/kg/injection, schedule: Q01DX010 (ip), vehicle: other); 163 % of control and 175 % of control (dose: 0.2 mg/kg/injection, schedule: Q01DX010 (ip), vehicle: other).

For `CCOC(=O)c1ccc(OC(=O)Nc2ccccc2OC)cc1`, the T/C is, setting by setting: (dose: 100.0 mg/kg/injection, schedule: Q04DX003 (ip), vehicle: saline with Tween-80) 91 % of control; (dose: 200.0 mg/kg/injection, schedule: Q04DX003 (ip), vehicle: saline with Tween-80) 108 % of control; (dose: 400.0 mg/kg/injection, schedule: Q04DX003 (ip), vehicle: saline with Tween-80) 108 % of control.

These data come from PubChem BioAssay AID328 (DTP/NCI, 2004).
